How the values were obtained:
[1] = molecular target: T1, human BRD4 bromodomain II (Homo sapiens, UniProt O60885); assay: Bromodomain binding assay (AlphaScreen), BRD4 BDII; conditions: AlphaScreen assay, Table C2; read-out: BRD4 BDII IC50
T1 construct: human BRD4 bromodomain II [based on Genbank NM_058243, residues 349-460]; host or cells: E. coli
Procedure, shortened: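 AlphaScreen competition: His6-BRD4 BDI (aa 44-170) or BDII (aa 349-460) vs biotin-H4(1-21) K5/K8/K12/K16Ac peptide; Ni-chelate acceptor/streptavidin donor beads. HEPES pH 7.5, NaCl, CHAPS, BSA, 1% DMSO; RT. 10-pt 3-fold titration, % peptide binding fitted → IC50.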

[2] = system: human SKM-1 acute myeloid leukemia cells; assay: SKM-1 antiproliferation cell-based assay (ATPlite); conditions: Homo sapiens, SKM-1, 96 h, SKM-1 antiproliferation assay, 4 days, Table C2
Procedure, shortened: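 Log-phase cells in RPMI 1640/15% FBS were seeded at 34722 cells/mL and exposed for 4 days to nine-concentration DMSO serial dilutions in triplicate. Viability was read as ATP luminescence (ATPlite 1step), and IC50 values came from variable-slope non-linear regression.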

IC50 [1] [nM]	GI50 [2] [nM]	SMILES
0.01 to 1	0.3 to 30	Cn1ccn(-c2ccc(-c3cc(F)cc(-c4ccnc(N5CCN(C6CCOCC6)CC5)c4)c3O)cc2Cl)c1=O [Example 634, 1-(3-chloro-5′-fluoro-2′-hydroxy-3′-(2-(4-(tetrahydro-2H-pyran-4-yl)piperazin-1-yl)pyridin-4-yl)-[1,1′-biphenyl]-4-yl)-3-methyl-1H-imidazol-2(3H)-one]
1 to 10	0.3 to 30	Cn1ccn(-c2ccc(-c3cc(F)cc(-c4ccnc(N5CC[C@H](N6CCOCC6)C5)c4)c3O)cc2Cl)c1=O [Example 635, (S)-1-(3-chloro-5′-fluoro-2′-hydroxy-3′-(2-(3-morpholinopyrrolidin-1-yl)pyridin-4-yl)-[1,1′-biphenyl]-4-yl)-3-methyl-1H-imidazol-2(3H)-one]
0.01 to 1	0.3 to 30	Cn1ccn(-c2ccc(-c3cc(F)cc(-c4ccnc(N5CCC6(CCCN6)C5)c4)c3O)cc2Cl)c1=O (centres unmarked) [Example 636, 1-(3′-(2-(1,7-diazaspiro[4.4]nonan-7-yl)pyridin-4-yl)-3-chloro-5′-fluoro-2′-hydroxy-[1,1′-biphenyl]-4-yl)-3-methyl-1H-imidazol-2(3H)-one]
0.01 to 1	0.3 to 30	CN1CCCC12CCN(c1cc(-c3cc(F)cc(-c4ccc(-n5ccn(C)c5=O)c(Cl)c4)c3O)ccn1)C2 (centres unmarked) [Example 637, 1-(3-chloro-5′-fluoro-2′-hydroxy-3′-(2-(1-]
0.01 to 1	0.3 to 30	C[C@@H]1CN(c2cc(-c3cc(F)cc(-c4ccc(-n5ccn(C)c5=O)c(Cl)c4)c3O)cc(OCCCO)n2)CCN1 [Example 638, (R)-1-(3-chloro-5′-fluoro-2′-hydroxy-3′-(2-(3-hydroxypropoxy)-6-(3-methylpiperazin-1-yl)pyridin-4-yl)-[1,1′-biphenyl]-4-yl)-3-methyl-1H-imidazol-2(3H)-one]
0.01 to 1	0.3 to 30	Cn1ccn(-c2ccc(-c3cc(F)cc(-c4ccnc(N5CCN[C@H](C(C)(C)O)C5)c4)c3O)cc2Cl)c1=O [Example 639, (S)-1-(3-chloro-5′-fluoro-2′-hydroxy-3′-(2-(3-(2-hydroxypropan-2-yl)piperazin-1-yl)pyridin-4-yl)-[1,1′-biphenyl]-4-yl)-3-methyl-1H-imidazol-2(3H)-one]
0.01 to 1	0.3 to 30	Cn1ccn(-c2ccc(-c3cc(F)cc(-c4ccnc(N5CCNC(CCO)C5)c4)c3O)cc2Cl)c1=O (centres unmarked) [Example 640, 1-(3-chloro-5′-fluoro-2′-hydroxy-3′-(2-(3-(2-hydroxyethyl)piperazin-1-yl)pyridin-4-yl)-[1,1′-biphenyl]-4-yl)-3-methyl-1H-imidazol-2(3H)-one]
0.01 to 1	0.3 to 30	Cn1ccn(-c2ccc(-c3cc(F)cc(-c4ccnc(N5CCC6(CCN6)C5)c4)c3O)cc2Cl)c1=O (centres unmarked) [Example 641, 1-(3′-(2-(1,6-diazaspiro[3.4]octan-6-yl)pyridin-4-yl)-3-chloro-5′-fluoro-2′-hydroxy-[1,1′-biphenyl]-4-yl)-3-methyl-1H-imidazol-2(3H)-one]
0.01 to 1	0.3 to 30	CN1CCC12CCN(c1cc(-c3cc(F)cc(-c4ccc(-n5ccn(C)c5=O)c(Cl)c4)c3O)ccn1)C2 (centres unmarked) [Example 642, 1-(3-chloro-5′-fluoro-2′-hydroxy-3′-(2-(1-methyl-1,6-diazaspiro[3.4]octan-6-yl)pyridin-4-yl)-[1,1′-biphenyl]-4-yl)-3-methyl-1H-imidazol-2(3H)-one]
0.01 to 1	30 to 300	Cn1ccn(-c2ccc(-c3cc(F)cc(-c4ccnc(N5CCNC(C6CC6)C5)c4)c3O)cc2Cl)c1=O (stereo not drawn) [Example 643, 1-(3-chloro-3′-(2-(3-cyclopropylpiperazin-l-yl)pyridin-4-yl)-5′-fluoro-2′-hydroxy-[1,1′-biphenyl]-4-yl)-3-methyl-1H-imidazol-2(3H)-one]
0.01 to 1	0.3 to 30	Cn1ccn(-c2ccc(-c3cc(F)cc(-c4ccnc(N5CCN[C@H](CC(N)=O)C5)c4)c3O)cc2Cl)c1=O [Example 644, (R)-2-(4-(4-(3′-chloro-5-fluoro-2-hydroxy-4′-(3-methyl-2-oxo-2,3-dihydro-1H-imidazol-1-yl)-[1,1′-biphenyl]-3-yl)pyridin-2-yl)piperazin-2-yl)acetamide]
0.01 to 1	0.3 to 30	COCCN1CCN(c2cc(-c3cc(F)cc(-c4ccc(-n5ccn(C)c5=O)c(Cl)c4)c3O)ccn2)CC1 [Example 645, 1-(3-chloro-5′-fluoro-2′-hydroxy-3′-(2-(4-(2-methoxyethyl)piperazin-1-yl)pyridin-4-yl)-[1,1′-biphenyl]-4-yl)-3-methyl-1H-imidazol-2(3H)-one]

Second part, the compound before the results:

SMILES	IC50 [1] [nM]	GI50 [2] [nM]
Cn1ccn(-c2ccc(-c3cc(F)cc(-c4ccnc(N5CCN(C[C@H](O)CO)CC5)c4)c3O)cc2Cl)c1=O [Example 621, (S)-1-(3-chloro-3′-(2-(4-(2,3-dihydroxypropyl)piperazin-1-yl)pyridin-4-yl)-5′-fluoro-2′-hydroxy-[1,1′-biphenyl]-4-yl)-3-methyl-1H-imidazol-2(3H)-one]	0.01 to 1	0.3 to 30
Cn1ccn(-c2ccc(-c3cc(F)cc(-c4ccnc(N5CCC[C@@H](O)C5)c4)c3O)cc2Cl)c1=O [Example 622, (R)-1-(3-chloro-5′-fluoro-2′-hydroxy-3′-(2-(3-hydroxypiperidin-1-yl)pyridin-4-yl)-[1,1′-biphenyl]-4-yl)-3-methyl-1H-imidazol-2(3H)-one]	1 to 10	30 to 300
Cn1ccn(-c2ccc(-c3cc(F)cc(-c4ccnc(N5CCCNCC5)c4)c3O)cc2Cl)c1=O [Example 623, 1-(3′-(2-(1,4-diazepan-1-yl)pyridin-4-yl)-3-chloro-5′-fluoro-2′-hydroxy-[1,1′-biphenyl]-4-yl)-3-methyl-1H-imidazol-2(3H)-one]	0.01 to 1	0.3 to 30
Cn1ccn(-c2ccc(-c3cc(F)cc(-c4ccnc(N5CCN6CCCCC6C5)c4)c3O)cc2Cl)c1=O (centres unmarked) [Example 624, 1-(3-chloro-5′-fluoro-3′-(2-(hexahydro-1H-pyrido[1,2-a]pyrazin-2(6H)-yl)pyridin-4-yl)-2′-hydroxy-[1,1′-biphenyl]-4-yl)-3-methyl-1H-imidazol-2(3H)-one]	0.01 to 1	30 to 300
Cn1ccn(-c2ccc(-c3cc(F)cc(-c4ccnc(N5CCN6CCCC6C5)c4)c3O)cc2Cl)c1=O (centres unmarked) [Example 625, 1-(3-chloro-5′-fluoro-3′-(2-(hexahydropyrrolo[1,2-a]pyrazin-2(1H)-yl)pyridin-4-yl)-2′-hydroxy-[1,1′-biphenyl]-4-yl)-3-methyl-1H-imrdazol-2(3H)-one]	0.01 to 1	0.3 to 30
Cn1ccn(-c2ccc(-c3cc(F)cc(-c4ccnc(N5CC[C@H](O)C5)c4)c3O)cc2Cl)c1=O [Example 626, (S)-1-(3-chloro-5′-fluoro-2′-hydroxy-3′-(2-(3-hydroxypyrrolidin-1-yl)pyridin-4-yl)-[1,1′-biphenyl]-4-yl)-3-methyl-1H-imidazol-2(3H)-one]	0.01 to 1	30 to 300
Cn1ccn(-c2ccc(-c3cc(F)cc(-c4ccnc(N5CC[C@@H](O)C5)c4)c3O)cc2Cl)c1=O [Example 627, (R)-1-(3-chloro-5′-fluoro-2′-hydroxy-3′-(2-(3-hydroxypyrrolidin-1-yl)pyridin-4-yl)-[1,1′-biphenyl]-4-yl)-3-methyl-1H-imidazol-2(3H)-one]	0.01 to 1	30 to 300
Cn1ccn(-c2ccc(-c3cc(F)cc(-c4ccnc(N5CCC[C@H](O)C5)c4)c3O)cc2Cl)c1=O [Example 628, (S)-1-(3-chloro-5′-fluoro-2′-hydroxy-3′-(2-(3-hydroxypiperidin-1-yl)pyridin-4-yl)-[1,1′-biphenyl]-4-yl)-3-methyl-1H-imidazol-2(3H)-one]	0.01 to 1	30 to 300
Cn1ccn(-c2ccc(-c3cc(F)cc(-c4ccnc(N5CCN(Cc6ccccc6)CC5)c4)c3O)cc2Cl)c1=O [Example 629, 1-(3′-(2-(4-benzylpiperazin-1-yl)pyridin-4-yl)-3-chloro-5′-fluoro-2′-hydroxy-[1,1′-biphenyl]-4-yl)-3-methyl-1H-imidazol-2(3H)-one]	0.01 to 1	30 to 300
C[C@@H]1CN(c2cc(-c3cc(F)cc(-c4ccc(-n5ccn(C)c5=O)c(Cl)c4)c3O)cn(CCCO)c2=O)CCN1 [Example 630, (R)-5-(3′-chloro-5-fluoro-2-hydroxy-4′-(3-methyl-2-oxo-2,3-dihydro-IH-imidazol-1-yl)-[1,1′-biphenyl]-3-yl)-1-(3-hydroxypropyl)-3-(3-methylpiperazin-1-yl)pyridin-2(1H)-one]	0.01 to 1	30 to 300
Cn1ccn(-c2ccc(-c3cc(F)cc(-c4ccnc(N5CCNC(c6ccccc6)C5)c4)c3O)cc2Cl)c1=O (centres unmarked) [Example 631, 1-(3-chloro-5′-fluoro-2′-hydroxy-3′-(2-(3-phenylpiperazin-1-yl)pyridin-4-yl)-[1,1′-biphenyl]-4-yl)-3-methyl-1H-imidazol-2(3H)-one]	0.01 to 1	30 to 300
C[C@H]1CCCN(c2cc(-c3cc(F)cc(-c4ccc(-n5ccn(C)c5=O)c(Cl)c4)c3O)ccn2)C1 [Example 632, (S)-1-(3-chloro-5′-fluoro-2′-hydroxy-3′-(2-(3-methylpiperidin-1-yl)pyridin-4-yl)-[1,1′-biphenyl]-4-yl)-3-methyl-1H-imidazol-2(3H)-one]	10 to 100	300 to 3000
COCCCN1CCN(c2cc(-c3cc(F)cc(-c4ccc(-n5ccn(C)c5=O)c(Cl)c4)c3O)ccn2)CC1 [Example 633, 1-(3-chloro-5′-fluoro-2′-hydroxy-3′-(2-(4-(3-methoxypropyl)piperazin-1-yl)pyridin-4-yl)-[1,1′-biphenyl]-4-yl)-3-methyl-1H-imidazol-2(3H)-one]	0.01 to 1	0.3 to 30

— US20250179059A1 (The Regents of the University of California, priority 2021, published 2025)
